{
  "source": "PubChem BioAssay AID1259409",
  "about": "(Chemical Carcinogenesis Research Information System (CCRIS), 2018)",
  "origin": "cited, not measured here",
  "test_system": "rodent chemically induced tumor inhibition, incidence and multiplicity",
  "assay": "CCRIS tumor inhibitor studies",
  "data": [
    {"smiles": "C[C@]12CC[C@H](O)CC1=CC[C@@H]1[C@@H]2CC[C@]2(C)C(=O)CC[C@@H]12", "values": [
      {"measurement": "tumour outcome (control, treated, inhibition, significance)", "setting": "Carcinogen: N-METHYL-N-NITROSOUREA, 684-93-5, Dose [Inhibitor]: 0, 5 PPM IN DIET FOR DURATION OF STUDY BEGINNING 1 WK PRIOR TO CARCINOGEN DOSE (STUDY DURATION: 109 D), Route [Inhibitor]: ORAL, Species: RAT, Strain/Sex: SPRAGUE-DAWLEY/FEMALE, Target Tissue: Type of Lesion: MAMMARY GLAND: TUMOR, Dose [Carcinogen]: 50 MG/KG BW IN ACIDIFIED SALINE (PH 5.0) ONCE, Promoter: NONE USED", "result": "100%, 89%, 11%, not calculated"},
      {"measurement": "tumour outcome (control, treated, inhibition, significance)", "setting": "Carcinogen: N-METHYL-N-NITROSOUREA, 684-93-5, Dose [Inhibitor]: 0, 24 PPM IN DIET FOR DURATION OF STUDY BEGINNING 1 WK PRIOR TO CARCINOGEN DOSE (STUDY DURATION: 109 D), Route [Inhibitor]: ORAL, Species: RAT, Strain/Sex: SPRAGUE-DAWLEY/FEMALE, Target Tissue: Type of Lesion: MAMMARY GLAND: TUMOR, Dose [Carcinogen]: 50 MG/KG BW IN ACIDIFIED SALINE (PH 5.0) ONCE, Promoter: NONE USED", "result": "100%, 80%, 20%, not calculated"},
      {"measurement": "tumour outcome (control, treated, inhibition, significance)", "setting": "Carcinogen: N-METHYL-N-NITROSOUREA, 684-93-5, Dose [Inhibitor]: 0, 120 PPM IN DIET FOR DURATION OF STUDY BEGINNING 1 WK PRIOR TO CARCINOGEN DOSE (STUDY DURATION: 109 D), Route [Inhibitor]: ORAL, Species: RAT, Strain/Sex: SPRAGUE-DAWLEY/FEMALE, Target Tissue: Type of Lesion: MAMMARY GLAND: TUMOR, Dose [Carcinogen]: 50 MG/KG BW IN ACIDIFIED SALINE (PH 5.0) ONCE, Promoter: NONE USED", "result": "100%, 80%, 20%, not calculated"},
      {"measurement": "tumour outcome (control, treated, inhibition, significance)", "setting": "Carcinogen: N-METHYL-N-NITROSOUREA, 684-93-5, Dose [Inhibitor]: 0, 400 MG/KG DIET FOR DURATION OF STUDY BEGINNING 1 WK PRIOR TO CARCINOGEN DOSE (STUDY DURATION: 187 D), Route [Inhibitor]: ORAL, Species: RAT, Strain/Sex: SPRAGUE-DAWLEY/FEMALE, Target Tissue: Type of Lesion: MAMMARY GLAND: TUMOR, Dose [Carcinogen]: 35 MG/KG BW ONCE, Promoter: NONE USED", "result": "85%, 0%, 100%, p<0.01"},
      {"measurement": "tumour outcome (control, treated, inhibition, significance)", "setting": "Carcinogen: N-METHYL-N-NITROSOUREA, 684-93-5, Dose [Inhibitor]: 0, 600 PPM IN DIET FOR DURATION OF STUDY BEGINNING 1 WK PRIOR TO CARCINOGEN DOSE (STUDY DURATION: 109 D), Route [Inhibitor]: ORAL, Species: RAT, Strain/Sex: SPRAGUE-DAWLEY/FEMALE, Target Tissue: Type of Lesion: MAMMARY GLAND: TUMOR, Dose [Carcinogen]: 50 MG/KG BW IN ACIDIFIED SALINE (PH 5.0) ONCE, Promoter: NONE USED", "result": "100%, 40%, 60%, not calculated"},
      {"measurement": "tumour outcome (control, treated, inhibition, significance)", "setting": "Carcinogen: N-METHYL-N-NITROSOUREA, 684-93-5, Dose [Inhibitor]: 0, 800 MG/KG DIET FOR DURATION OF STUDY BEGINNING 1 WK PRIOR TO CARCINOGEN DOSE (STUDY DURATION: 187 D), Route [Inhibitor]: ORAL, Species: RAT, Strain/Sex: SPRAGUE-DAWLEY/FEMALE, Target Tissue: Type of Lesion: MAMMARY GLAND: TUMOR, Dose [Carcinogen]: 35 MG/KG BW ONCE, Promoter: NONE USED", "result": "70%, 0%, 100%, p<0.01"},
      {"measurement": "tumour outcome (control, treated, inhibition, significance)", "setting": "Carcinogen: N-NITROSOMORPHOLINE, 59-89-2, Dose [Inhibitor]: 0.25% IN DIET (STUDY DURATION: 51 WK), Route [Inhibitor]: ORAL, Species: RAT, Strain/Sex: SPRAGUE-DAWLEY/MALE, Target Tissue: Type of Lesion: LIVER: HEMANGIOSARCOMA, Dose [Carcinogen]: 120 MG/L IN DRINKING WATER FOR FIRST 7 WK OF STUDY, Promoter: NONE USED", "result": "8/35 (23%), 1/35 (3%), 88%, p<0.05"},
      {"measurement": "tumour outcome (control, treated, inhibition, significance)", "setting": "Carcinogen: N-NITROSOMORPHOLINE, 59-89-2, Dose [Inhibitor]: 0.25% IN DIET (STUDY DURATION: 51 WK), Route [Inhibitor]: ORAL, Species: RAT, Strain/Sex: SPRAGUE-DAWLEY/MALE, Target Tissue: Type of Lesion: LIVER: HEPATOCELLULAR ADENOMA, MIXED CELL, Dose [Carcinogen]: 120 MG/L IN DRINKING WATER FOR FIRST 7 WK OF STUDY, Promoter: NONE USED", "result": "32/35 (91%), 28/35 (80%), 14%, not calculated"},
      {"measurement": "tumour outcome (control, treated, inhibition, significance)", "setting": "Carcinogen: N-NITROSOMORPHOLINE, 59-89-2, Dose [Inhibitor]: 0.25% IN DIET (STUDY DURATION: 51 WK), Route [Inhibitor]: ORAL, Species: RAT, Strain/Sex: SPRAGUE-DAWLEY/MALE, Target Tissue: Type of Lesion: LIVER: HEPATOCELLULAR CARCINOMA, Dose [Carcinogen]: 120 MG/L IN DRINKING WATER FOR FIRST 7 WK OF STUDY, Promoter: NONE USED", "result": "33%, 20%, 39%, not calculated"},
      {"measurement": "tumour outcome (control, treated, inhibition, significance)", "setting": "Carcinogen: N-methyl-N-nitrosourea, 684-93-5, Dose [Inhibitor]: 125 mg/kg in diet for 6 wks starting 6 wks after administration of carcinogen, Route [Inhibitor]: Oral, Species: Rat, Strain/Sex: Sprague Dawley/Female, Target Tissue: Type of Lesion: Mammary gland: tumors, Dose [Carcinogen]: 50 mg/kg injected once in 50 d old mice, tumors allowed to develop for 6 wks before inhibitor administration (Test mater, Promoter: None used", "result": "93.3%, 96.7%, -0.03%, not significant"},
      {"measurement": "tumour outcome (control, treated, inhibition, significance)", "setting": "Carcinogen: N-methyl-N-nitrosourea, 684-93-5, Dose [Inhibitor]: 1000 mg/kg in diet for 6 wks starting 6 wks after administration of carcinogen, Route [Inhibitor]: Oral, Species: Rat, Strain/Sex: Sprague Dawley/Female, Target Tissue: Type of Lesion: Mammary gland: tumors, Dose [Carcinogen]: 50 mg/kg injected once in 50 d old mice, tumors allowed to develop for 6 wks before inhibitor administration (Test mater, Promoter: None used", "result": "93.3%, 76.7%, 17.8%, not significant"},
      {"measurement": "tumour outcome (control, treated, inhibition, significance)", "setting": "Carcinogen: NONE USED, Dose [Inhibitor]: 0, 0.45% IN DIET FOR DURATION OF STUDY (STUDY DURATION: 84 WK), Route [Inhibitor]: ORAL, Species: RAT, Strain/Sex: F344/MALE, Target Tissue: Type of Lesion: TESTES: LEYDIG CELL TUMOR, Promoter: NONE USED", "result": "8/8 (100%), 0/13 (0%), 100%, p<0.005"},
      {"measurement": "tumour outcome (control, treated, inhibition, significance)", "setting": "Carcinogen: NONE USED, Dose [Inhibitor]: 450 MG/KG IN SESAME OIL 3/WK BEGINNING AT 5-6 WK OF AGE AND CONTINUING FOR DURATION OF STUDY (STUDY DURATION: 18 MO), Route [Inhibitor]: INTRAGASTRIC, Species: MOUSE, Strain/Sex: C3H-A/A/FEMALE, Target Tissue: Type of Lesion: MAMMARY GLAND: TUMOR, Promoter: NONE USED", "result": "21/78 (27%), 9/77 (12%), 56%, p<0.05"},
      {"measurement": "tumour outcome (control, treated, inhibition, significance)", "setting": "Carcinogen: NONE USED, Dose [Inhibitor]: 450 MG/KG IN SESAME OIL 3/WK BEGINNING AT 5-6 WK OF AGE AND CONTINUING FOR DURATION OF STUDY (STUDY DURATION: 18 MO), Route [Inhibitor]: INTRAGASTRIC, Species: MOUSE, Strain/Sex: C3H-AVY/A/FEMALE, Target Tissue: Type of Lesion: MAMMARY GLAND: TUMOR, Promoter: NONE USED", "result": "19/27 (70%), 5/23 (22%), 68%, p<0.005"},
      {"measurement": "tumour outcome (control, treated, inhibition, significance)", "setting": "Carcinogen: NONE USED, Dose [Inhibitor]: 450 MG/KG IN SESAME OIL 3/WK FOR DURATION OF STUDY (STUDY DURATION: 9 MO), Route [Inhibitor]: INTRAGASTRIC, Species: MOUSE, Strain/Sex: C3H-AVY/A/FEMALE, Target Tissue: Type of Lesion: MAMMARY GLAND: TUMOR, Promoter: NONE USED", "result": "14/26 (54%), 0/24 (0%), 100%, not calculated"}
    ]}
  ]
}
